Data taken from ChEMBL document CHEMBL4622897, “Synthesis and biological evaluation of backbone-aminated analogues of gramicidin S” (Bioorg Med Chem Lett, 2020).
Numbered stars: 1 amine (or outer) side, 2 acyl side, 3 side chain; on linkers, the order of the positions; unused ones are H or OH. Square brackets hold non-standard residues; d marks the D form. Peptide text beside a SMILES is read from it. X1 = NN([C@H](Cc1ccccc1)C(=O)[*:2])[*:1]; Orn(Nα-NH2) = NCCC[C@H](NN)C(=O)O; Orn = NCCC[C@H](N)C(=O)O

Experiments:
Pseudomonas aeruginosa = assay: Antibacterial activity against Pseudomonas aeruginosa 1419 assessed as growth inhibition by microbroth dilution assay; format: functional
Klebsiella pneumoniae = assay: Antibacterial activity against Klebsiella pneumoniae 1433 assessed as growth inhibition by microbroth dilution assay; format: functional
Acinetobacter baumannii = assay: Antibacterial activity against Acinetobacter baumannii 5075 assessed as growth inhibition by microbroth dilution assay; format: functional; details: AB5075
Staphylococcus aureus = assay: Antibacterial activity against Staphylococcus aureus 635 assessed as growth inhibition by microbroth dilution assay; format: functional
Enterococcus faecium = assay: Antibacterial activity against Enterococcus faecium 1450 assessed as growth inhibition by microbroth dilution assay; format: functional
Enterobacter cloacae = assay: Antibacterial activity against Enterobacter cloacae 1454 assessed as growth inhibition by microbroth dilution assay; format: functional
Erythrocyte = assay: Hemolytic activity in human RBC assessed as hemolysis at 50 uM; format: ADME, cell-based
[1] = Hemolytic activity in human RBC assessed as hemolysis at 50 uM relative to control; format: ADME, cell-based, Erythrocyte; details: red blood cells (erythrocytes), read-out: Activity

Row | MIC (Pseudomonas aeruginosa) [µM] | MIC (Klebsiella pneumoniae) [µM] | MIC (Acinetobacter baumannii) [µM] | MIC (Staphylococcus aureus) [µM] | MIC (Enterococcus faecium) [µM] | MIC (Enterobacter cloacae) [µM] | SMILES | Activity (Erythrocyte) | hemolysis at 50 µM [1] [%]
1 | 15 | > 50 | 5 | 2 | 2 | > 50 | CC(C)C[C@@H]1NC(=O)[C@H](CCCN)N(N)C(=O)[C@H](C(C)C)NC(=O)[C@@H]2CCCN2C(=O)[C@@H](Cc2ccccc2)N(N)C(=O)[C@H](CC(C)C)NC(=O)[C@H](CCCN)N(N)C(=O)[C@H](C(C)C)NC(=O)[C@@H]2CCCN2C(=O)[C@@H](Cc2ccccc2)N(N)C1=O (cyclo(L[X1]PV[Orn(Nα-NH2)]L[X1]PV[Orn(Nα-NH2)])) | Toxic | 
2 | 20 | 50 | 6.5 | 3 | 3 | 35 | CC(C)C[C@@H]1NC(=O)[C@H](CCCN)NC(=O)[C@H](C(C)C)NC(=O)[C@@H]2CCCN2C(=O)[C@@H](Cc2ccccc2)N(N)C(=O)[C@H](CC(C)C)NC(=O)[C@H](CCCN)N(N)C(=O)[C@H](C(C)C)NC(=O)[C@@H]2CCCN2C(=O)[C@@H](Cc2ccccc2)N(N)C1=O (cyclo(L[X1]PV[Orn]L[X1]PV[Orn(Nα-NH2)])) |  | 
3 | 12 | > 50 | 6 | 2 | 2 | > 50 | CC(C)C[C@@H]1NC(=O)[C@H](CCCN)N(N)C(=O)[C@H](C(C)C)NC(=O)[C@@H]2CCCN2C(=O)[C@@H](Cc2ccccc2)N(N)C(=O)[C@H](CC(C)C)NC(=O)[C@H](CCCN)N(N)C(=O)[C@H](C(C)C)NC(=O)[C@@H]2CCCN2C(=O)[C@@H](Cc2ccccc2)NC1=O (cyclo(L[dF]PV[Orn(Nα-NH2)]L[X1]PV[Orn(Nα-NH2)])) |  | 
4 | 10 | 45 | 4 | 2 | 2 | 20 | CC(C)C[C@@H]1NC(=O)[C@H](CCCN)N(N)C(=O)[C@H](C(C)C)NC(=O)[C@@H]2CCCN2C(=O)[C@@H](Cc2ccccc2)NC(=O)[C@H](CC(C)C)NC(=O)[C@H](CCCN)N(N)C(=O)[C@H](C(C)C)NC(=O)[C@@H]2CCCN2C(=O)[C@@H](Cc2ccccc2)NC1=O (cyclo(L[dF]PV[Orn(Nα-NH2)]L[dF]PV[Orn(Nα-NH2)])) |  | 16
5 | 15 | 45 | 6.5 | 2 | 3 | 30 | CC(C)C[C@@H]1NC(=O)[C@H](CCCN)N(N)C(=O)[C@H](C(C)C)NC(=O)[C@@H]2CCCN2C(=O)[C@@H](Cc2ccccc2)N(N)C(=O)[C@H](CC(C)C)NC(=O)[C@H](CCCN)NC(=O)[C@H](C(C)C)NC(=O)[C@@H]2CCCN2C(=O)[C@@H](Cc2ccccc2)NC1=O (cyclo(L[dF]PV[Orn]L[X1]PV[Orn(Nα-NH2)])) |  | 

The remaining lines, values behind:

Row | SMILES | MIC (Pseudomonas aeruginosa) [µM] | MIC (Klebsiella pneumoniae) [µM] | MIC (Acinetobacter baumannii) [µM] | MIC (Staphylococcus aureus) [µM] | MIC (Enterococcus faecium) [µM] | MIC (Enterobacter cloacae) [µM] | Activity (Erythrocyte) | hemolysis at 50 µM [1] [%]
6 | CC(C)C[C@@H]1NC(=O)[C@H](CCCN)NC(=O)[C@H](C(C)C)NC(=O)[C@@H]2CCCN2C(=O)[C@@H](Cc2ccccc2)N(N)C(=O)[C@H](CC(C)C)NC(=O)[C@H](CCCN)NC(=O)[C@H](C(C)C)NC(=O)[C@@H]2CCCN2C(=O)[C@@H](Cc2ccccc2)N(N)C1=O (cyclo(L[X1]PV[Orn]L[X1]PV[Orn])) | 35 | > 50 | 12.5 | 4 | 4 | > 50 | Toxic | 
7 | CC(C)C[C@@H]1NC(=O)[C@H](CCCN)NC(=O)[C@H](C(C)C)NC(=O)[C@@H]2CCCN2C(=O)[C@@H](Cc2ccccc2)N(N)C(=O)[C@H](CC(C)C)NC(=O)[C@H](CCCN)N(N)C(=O)[C@H](C(C)C)NC(=O)[C@@H]2CCCN2C(=O)[C@@H](Cc2ccccc2)NC1=O (cyclo(L[dF]PV[Orn(Nα-NH2)]L[X1]PV[Orn])) | 15 | 45 | 6.5 | 2 | 3 | 15 |  | 
8 | CC(C)C[C@@H]1NC(=O)[C@H](CCCN)NC(=O)[C@H](C(C)C)NC(=O)[C@@H]2CCCN2C(=O)[C@@H](Cc2ccccc2)N(N)C(=O)[C@H](CC(C)C)NC(=O)[C@H](CCCN)NC(=O)[C@H](C(C)C)NC(=O)[C@@H]2CCCN2C(=O)[C@@H](Cc2ccccc2)NC1=O (cyclo(L[dF]PV[Orn]L[X1]PV[Orn])) | 20 | 45 | 6 | 4 | 5 | 40 |  | 
9 | CC(C)C[C@@H]1NC(=O)[C@H](CCCN)NC(=O)[C@H](C(C)C)NC(=O)[C@@H]2CCCN2C(=O)[C@@H](Cc2ccccc2)NC(=O)[C@H](CC(C)C)NC(=O)[C@H](CCCN)N(N)C(=O)[C@H](C(C)C)NC(=O)[C@@H]2CCCN2C(=O)[C@@H](Cc2ccccc2)NC1=O (cyclo(L[dF]PV[Orn]L[dF]PV[Orn(Nα-NH2)])) | 13 | 40 | 6.5 | 2 | 3 | 30 |  | 
10 | CC(C)C[C@@H]1NC(=O)[C@H](CCCN)NC(=O)[C@H](C(C)C)NC(=O)[C@@H]2CCCN2C(=O)[C@@H](Cc2ccccc2)NC(=O)[C@H](CC(C)C)NC(=O)[C@H](CCCN)NC(=O)[C@H](C(C)C)NC(=O)[C@@H]2CCCN2C(=O)[C@@H](Cc2ccccc2)NC1=O (cyclo(L[dF]PV[Orn]L[dF]PV[Orn])) |  |  |  |  |  |  |  | 22
11 | CC(C)C[C@@H]1NC(=O)[C@H](CCCN)NC(=O)[C@H](C(C)C)NC(=O)[C@@H]2CCCN2C(=O)[C@@H](Cc2ccccc2)NC(=O)[C@H](CC(C)C)NC(=O)[C@H](CCCN)NC(=O)[C@H](C(C)C)NC(=O)[C@@H]2CCCN2C(=O)[C@@H](Cc2ccccc2)NC1=O (cyclo(V[Orn]L[dF]PV[Orn]L[dF]P)) | 20 | 40 | 6.5 | 3 | 3 | 35 |  | 
